Test results: a compilation of properties of binary mixtures (doi:10.1016/j.jct.2020.106330)

Assay: xn = mol fraction of the nth substance listed
Conditions: 101.3 kPa

CCCC[n+]1ccn(C)c1.F[P-](F)(F)(F)(F)F + CN1CCCC1=O
speed of sound [m/s]
Conditions | 303.15 K | 308.15 K | 313.15 K | 318.15 K | 323.15 K
x1 = 0.0513 | 1522.2 | 1503.9 | 1485.8 | – | 1450.1
x1 = 0.1028 | 1516.1 | 1498.8 | 1481.6 | 1464.5 | 1447.6
x1 = 0.1422 | 1510 | 1493.2 | 1476.6 | 1460.1 | 1443.8
x1 = 0.1894 | – | 1486 | 1470 | 1454.1 | 1438.4
x1 = 0.2988 | – | 1470.9 | 1456 | 1441.3 | 1426.7
x1 = 0.499 | 1460.7 | 1447.2 | 1433.9 | – | 1407.6
x1 = 0.591 | – | 1438.8 | 1425.9 | – | 1400.6
x1 = 0.6991 | – | – | 1419.4 | 1407.1 | –
x1 = 0.812 | 1437.9 | 1425.8 | 1413.8 | 1402 | 1390.3
x1 = 0.8415 | 1436.6 | 1424.5 | 1412.6 | 1400.9 | 1389.3
x1 = 0.8812 | 1434.9 | – | 1411.2 | 1399.6 | 1388.1
x1 = 0.9423 | 1432.9 | 1421.1 | – | 1398 | –
x1 = 1 | – | 1419.8 | 1408.2 | 1396.8 | 1385.6

CN1CCCC1=O + CCCC[n+]1ccn(C)c1.F[P-](F)(F)(F)(F)F
x2 = 0
Conditions | speed of sound [m/s]
308.15 K | 1505
313.15 K | 1485.7
318.15 K | 1466.7
323.15 K | 1447.8
